The source of these data is ChEMBL document CHEMBL1201862, “PubChem BioAssay data set” (2004).

Test systems include IGROV-1; UACC-62; U-251; CCRF-CEM; DMS-114; OVCAR-8; 786-0; MCF7; A498; PC-3; Hs-578T; DU-145; MDA-MB-435; MDA-MB-231; MDA-N; T47D; M19-MEL; DLD-1; SNB-78; HOP-18.
Common to all, as to test: growth of human tumour cells (NCI), 48 h

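Grown in 96-well plates, cells were treated for 48 hours with each compound at five concentrations. Insufficient inhibition: endpoint recorded as highest concentration tested. GI50 is the concentration that inhibits growth by half.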 The source made the active and inactive calls. Cut-off read from the data, not from the text of the source: active = GI50 up to about 1.1 µM and inactive = higher. Bounds are passed on as bounds.

For `O=C(NN1C(=O)C(Cl)C1c1ccccc1O)c1ccccc1O` (centres undefined), the GI50 is 30.6 µM (inactive) in the experiment on IGROV-1; 27.9 µM (inactive) with UACC-62; 16.2 µM (inactive) with U-251; 5.12 µM (inactive) with CCRF-CEM; 6.82 µM (inactive) with DMS-114; 26.4 µM (inactive) in the experiment on OVCAR-8.
Regarding `CCc1c(O)c2c(c(O)c1C(C)=O)C(=O)c1c(cc(O)c(C(=O)O)c1C(=O)O)C2=O`, the GI50 in the experiment with 786-0, with IGROV-1, in the experiment on MCF7, in the experiment on UACC-62, with A498 and in the experiment on PC-3 was > 100 µM (inactive) each time. The GI50 in the experiment with Hs-578T, in the experiment on U-251, with DU-145, in the experiment with CCRF-CEM, with MDA-MB-435 and with MDA-MB-231 was > 100 µM (inactive) in each case. Further, the GI50 in the experiment on MDA-N, in the experiment with T47D and with OVCAR-8 was > 100 µM (inactive) throughout.
On to `c1ccc2c3c(ccc2c1)-c1[nH]ncc1CCO3`, for which the GI50 is 34 µM (inactive) in the experiment on M19-MEL; > 52 µM (inactive) with IGROV-1; 32.9 µM (inactive) in the experiment with MCF7; 34.8 µM (inactive) in the experiment with DLD-1; 29.9 µM (inactive) with UACC-62; > 56 µM (inactive) in the experiment with A498. The GI50 is 29.2 µM (inactive) with SNB-78; 18.4 µM (inactive) in the experiment with U-251; 32 µM (inactive) in the experiment on CCRF-CEM; 32.7 µM (inactive) in the experiment on DMS-114; 61.4 µM (inactive) in the experiment with HOP-18; 34.4 µM (inactive) in the experiment on OVCAR-8.
As to `NC(=O)c1c[se]c(C2OC(COP(=O)(O)CP(=O)(O)OCC3OC(n4cnc5c(N)ncnc54)C(O)C3O)C(O)C2O)n1` (centres undefined), the GI50 with 786-0 was 63.1 µM (inactive); in the experiment on M19-MEL it was > 100 µM (inactive); in the experiment with IGROV-1 it was 84.3 µM (inactive); with DLD-1 it was 55.5 µM (inactive); in the experiment with A498, > 100 µM (inactive); in the experiment with SNB-78, > 100 µM (inactive). The GI50 with U-251 was 61 µM (inactive); in the experiment with CCRF-CEM, 29.1 µM (inactive); with DMS-114 it was 97.5 µM (inactive); in the experiment on HOP-18, > 100 µM (inactive); with OVCAR-8, 87.9 µM (inactive).
Take `COc1ccc(Cc2nn(C3OC(COC(C)=O)C(OC(C)=O)C(OC(C)=O)C3OC(C)=O)c(=S)n(-c3ccc(OC)cc3)c2=O)cc1` (centres undefined): the GI50 in the experiment with M19-MEL, in the experiment on IGROV-1, with MCF7, with DLD-1, with UACC-62 and in the experiment with A498 was > 100 µM (inactive) each time. Further, the GI50 with SNB-78 was > 100 µM (inactive); with U-251, > 100 µM (inactive); with CCRF-CEM, > 100 µM (inactive); in the experiment with HOP-18 it was > 94 µM (inactive); in the experiment with OVCAR-8 it was > 100 µM (inactive).
In the case of `Cc1ccc(S(=O)(=O)OC[C@@H]2CO2)cc1`, the GI50 with 786-0, with M19-MEL, in the experiment on IGROV-1, in the experiment on DLD-1, with A498 and with SNB-78 was > 100 µM (inactive) in each case. The GI50 in the experiment with CCRF-CEM, in the experiment on HOP-18 and in the experiment on OVCAR-8 was > 100 µM (inactive) each time.
On to `COc1cccc(NC(=O)CSc2nnc(-c3ccc(NC(C)=O)cc3)o2)c1`, for which the GI50 with 786-0 is > 100 µM (inactive); with M19-MEL, > 100 µM (inactive); in the experiment with IGROV-1, 50 µM (inactive); in the experiment with DLD-1, > 100 µM (inactive); in the experiment on UACC-62 it was > 100 µM (inactive); in the experiment on SNB-78 it was > 100 µM (inactive). Also, the GI50 in the experiment on U-251 was > 100 µM (inactive); in the experiment with CCRF-CEM it was 79.1 µM (inactive); with DMS-114 it was > 100 µM (inactive); in the experiment with HOP-18, 14 µM (inactive); in the experiment with OVCAR-8 it was > 100 µM (inactive).
As for `CC(Cc1ccccc1)Nc1ncnc2c1ncn2C1OC(CO)CC1O` (centres undefined), the GI50 with 786-0 is > 100 µM (inactive); in the experiment with IGROV-1 it was > 100 µM (inactive); with MCF7, 0.611 µM (active); in the experiment on UACC-62 it was > 100 µM (inactive); in the experiment with A498 it was > 100 µM (inactive); with PC-3 it was > 100 µM (inactive). Besides, the GI50 is 58.7 µM (inactive) in the experiment with Hs-578T; > 100 µM (inactive) in the experiment with U-251; > 100 µM (inactive) with DU-145; > 100 µM (inactive) in the experiment with CCRF-CEM; > 100 µM (inactive) in the experiment with MDA-MB-435; > 100 µM (inactive) in the experiment with MDA-MB-231. Besides, the GI50 with MDA-N, in the experiment on T47D and in the experiment with OVCAR-8 was > 100 µM (inactive) throughout.
For the compound `O=C(c1ccccc1)c1nc2ccc(Cl)cc2c2c1CCCO2`, the GI50 in the experiment with M19-MEL, in the experiment on IGROV-1, in the experiment with UACC-62, in the experiment with SNB-78, with U-251 and in the experiment with DMS-114 was > 100 µM (inactive) throughout. Besides, the GI50 in the experiment on HOP-18 and in the experiment with OVCAR-8 was > 100 µM (inactive) throughout.
`O=C1C(Br)=CC2([N+](=O)[O-])CCNC3=C(C4=NCCc5c[nH]c(c54)C3=O)C2=C1Br` (centres undefined): the GI50 in the experiment with IGROV-1 was 1.99 µM (inactive); in the experiment on MCF7, 0.0562 µM (active); in the experiment with DLD-1 it was 0.364 µM (active); in the experiment with UACC-62, 1.72 µM (inactive); with A498 it was 5.06 µM (inactive); in the experiment on SNB-78, 2.09 µM (inactive). The GI50 in the experiment with U-251 was 1.51 µM (inactive); in the experiment with CCRF-CEM, 0.304 µM (active); in the experiment on DMS-114, 0.163 µM (active); in the experiment on HOP-18, 14.4 µM (inactive); in the experiment on OVCAR-8, 0.365 µM (active).
In the case of `CCOCNC(=O)N(COCC)COCC`, the GI50 in the experiment on M19-MEL, with IGROV-1, in the experiment on DLD-1, in the experiment on UACC-62, in the experiment on A498 and with SNB-78 was > 100 µM (inactive) throughout. The GI50 with CCRF-CEM, with DMS-114 and in the experiment with OVCAR-8 was > 100 µM (inactive) each time.
Turning to `CCCN(CCC)c1cc2c(cc1F)c(=O)c(C(=O)O)cn2-c1ccc(N2CCN(C)CC2)cn1`, the GI50 with 786-0 was 15.8 µM (inactive); with IGROV-1, 12.9 µM (inactive); in the experiment with MCF7, 14.9 µM (inactive); with UACC-62, 18.5 µM (inactive); in the experiment with A498, 19.8 µM (inactive); with PC-3, 19 µM (inactive). The GI50 is 17 µM (inactive) in the experiment with Hs-578T; 25.5 µM (inactive) in the experiment on U-251; 19.5 µM (inactive) with DU-145; 17.6 µM (inactive) in the experiment with CCRF-CEM; 19.4 µM (inactive) with MDA-MB-435; 13.5 µM (inactive) in the experiment on MDA-MB-231. Further, the GI50 in the experiment on MDA-N was 20.1 µM (inactive); in the experiment with T47D it was 17 µM (inactive); in the experiment on OVCAR-8 it was 14.3 µM (inactive).
Take `Cc1c2cnccc2c(C)c2c1c1ccccc1n2CC1CO1` (centres undefined): the GI50 in the experiment with M19-MEL is 1.31 µM (inactive); in the experiment on IGROV-1 it was 1.48 µM (inactive); with MCF7, 0.0422 µM (active); in the experiment with DLD-1 it was 1.55 µM (inactive); in the experiment with UACC-62, 1.63 µM (inactive); in the experiment with A498, 0.247 µM (active). In addition, the GI50 was 1.83 µM (inactive) in the experiment with SNB-78; 1.6 µM (inactive) with U-251; 0.0389 µM (active) in the experiment with CCRF-CEM; 0.82 µM (active) with DMS-114; 1.86 µM (inactive) in the experiment on HOP-18; 0.443 µM (active) in the experiment with OVCAR-8.
With `CN1NC(c2ccc(Cl)cc2)=C(C#N)C(=O)CC1c1ccccc1` (centres undefined), the GI50 with 786-0 was > 100 µM (inactive); with DLD-1 it was > 100 µM (inactive); with A498 it was > 100 µM (inactive); with U-251, > 100 µM (inactive); in the experiment with DMS-114, > 100 µM (inactive); in the experiment on HOP-18, 29.9 µM (inactive).
For the compound `O=C(Cc1nc2ccc(C(=O)c3ccccc3)cc2nc1O)C(=O)Nc1nc2ccccc2[nH]1`, the GI50 in the experiment on 786-0 is > 100 µM (inactive); with M19-MEL it was 56.1 µM (inactive); in the experiment with IGROV-1 it was 93.5 µM (inactive); in the experiment on UACC-62, 38.7 µM (inactive); in the experiment with CCRF-CEM, 38.3 µM (inactive); in the experiment with DMS-114, 23.8 µM (inactive). Besides, the figures for the GI50 in the experiment with HOP-18 and with OVCAR-8 were 77.1 µM (inactive) and 55.1 µM (inactive), respectively.
For the compound `NC(=O)CCC(NCc1c2ccccc2[n+]([O-])c2ccccc12)C(=O)O` (centres undefined), the GI50 was 70.8 µM (inactive) in the experiment on 786-0; 95.5 µM (inactive) with M19-MEL; > 100 µM (inactive) with IGROV-1; 46.9 µM (inactive) with DLD-1; 90.8 µM (inactive) with UACC-62; > 100 µM (inactive) with A498. Moreover, the GI50 was > 100 µM (inactive) in the experiment on SNB-78; > 100 µM (inactive) in the experiment on U-251; 35.6 µM (inactive) in the experiment with CCRF-CEM; 41.9 µM (inactive) in the experiment on DMS-114; 33.5 µM (inactive) in the experiment with HOP-18; > 100 µM (inactive) in the experiment on OVCAR-8.
Take `CCOC(=O)C(Cc1ccc(N=NN(C)C)cc1)NC(=O)CC1c2ccccc2-c2ccccc21` (centres undefined): the GI50 is 82.4 µM (inactive) with 786-0; 49.3 µM (inactive) with M19-MEL; 69.8 µM (inactive) in the experiment with IGROV-1; 48.1 µM (inactive) in the experiment on DLD-1; 42.9 µM (inactive) in the experiment on UACC-62; > 100 µM (inactive) with A498. Besides, the GI50 is 39.7 µM (inactive) with U-251, 62.8 µM (inactive) in the experiment with CCRF-CEM, > 100 µM (inactive) with DMS-114 and > 100 µM (inactive) in the experiment on OVCAR-8.
`c1ccc(-c2nnc(-c3nsc4ccccc34)o2)cc1`: the GI50 was > 100 µM (inactive) in the experiment with M19-MEL; 60.4 µM (inactive) with IGROV-1; > 100 µM (inactive) with UACC-62; 98.9 µM (inactive) in the experiment with SNB-78; > 100 µM (inactive) in the experiment on U-251; > 100 µM (inactive) with CCRF-CEM. The GI50 with DMS-114 and with OVCAR-8 was > 100 µM (inactive) throughout.
